Data on one molecule can be found in publication PMC11775380, “Discovery of Novel Nav1.7-Selective Inhibitors with the 1H-Indole-3-Propionamide Scaffold for Effective Pain Relief” (Research, 2025).

The subject of series [1] is SNI neuropathic pain model in mice. The experiment in a line: Spared nerve injury (SNI) neuropathic pain model. Type of series: in vivo, C57 mice. An excerpt: Peripheral nerve injury models were developed to investigate the mechanisms of neuropathic pain. One such model, the spared nerve injury (SNI) neuropathic pain model in mice, involved ligating and transecting the […] and tibial nerves within the […] nerve, while leaving the sural nerve untouched. […] To evaluate the neuroanalgesic potential of WN2-R in this model, both i.g. and i.m. routes were used to evaluate the neuroanalgesic effect of WN2-R in this model (n = 5). […] In contrast, PF-05089771 reached its peak at 1 h (PWTs = 1.08 g) but then rapidly lost its efficacy, resembling the saline control group after 1 h. Throughout the experiment, the PWTs of the WN2-R group remained consistently higher than that of the PF-05089771 group (Fig. 6F and G). […] Subsequently, the efficacy of both drugs gradually declined, converging with the saline group after 3 h. Throughout the entire dosing period, the PWTs of the WN2-R group were slightly higher than that of the PF-05089771 group (Fig. 6M and N). […] To elucidate the time course of pain hypersensitivity induced by SNI, the behavioral responses (mechanical testing with von Frey fibers) were measured before surgery (baseline value) in C57 mice (5 female). Then, the mice underwent SNI surgery, which involved ligation and axotomy of the common peroneal and tibial nerves, while sparing the sural nerve. Sham-operated mice served as controls, with their nerves remaining intact. To confirm the presence of pain hypersensitivity in the SNI group, behavioral testing was carried out 14 days after SNI in each animal. Post drugs/saline administration, PWTs were measured at 0, 0.5, 1, 1.5, 2, 2.5, and 3 h for the i.g. route, and at 0, 0.5, 1, 2, 3, and 4 h for the i.m. route.

Details of series [2]: method as in PMID 28682065. Particulars: positive control drug; cited from earlier work.
The subject of series [3] is CFA inflammatory pain model of mice. The experiment in a line: CFA-induced inflammatory (chronic) pain model. The series is classed as in vivo, ICR mice. Particulars: for Paw withdrawal threshold (PWT) at 1.5 h: 1.5 h post drug, 24 h after CFA. As to the method:
The chronic pain model of mice was often used to simulate persistent pain in humans. In this model, chronic persistent pain was induced by injecting complete Freund’s adjuvant (CFA) into the right hind foot of mice. […] The chronic analgesic potential of WN2-R was evaluated using both i.g. and i.m. methods (n = 4). When administered by i.g., the PWTs of the WN2-R group and the PF-05089771 group reached their peak at 1.5 and 1 h after administration, respectively, and subsequently declined to the same level as the saline group at 2.5 h (Fig. 6D). […] When administered i.m., both the WN2-R and PF-05089771 groups reached peak PWTs at 1.5 h, and declined to the saline group level at 3 h (Fig. 6K). […] The mechanical allodynia of ICR mice (2 male and 2 female) was assessed prior to model construction using von Frey fibers according to the up–down method. Mice with paw withdraw thresholds (PWTs) remarkably deviating from the mean value were excluded from further experiments. Subsequently, 15 μl of CFA was unilaterally injected into the intraplantar surface of the right hind paw of each mice. After 24 h, the PWTs of the mice were assessed. During the i.g. administration of drugs or saline, PWTs were measured 0, 0.5, 1, 1.5, 2, and 2.5 h post drugs/saline administration. Similarly, during i.m. administration, PWTs were measured at 0, 0.5, 1, 1.5, 2, 2.5, and 3 h post drugs/saline administration.

Series [4] has as its system formalin-induced acute inflammatory pain model in mice. The experiment in a line: Formalin-induced inflammation pain model. Type of series: in vivo, ICR mice. Conditions: 30 min before formalin. As to the method:
The formalin-induced acute inflammatory pain model in mice, achieved through the plantar injection of formalin aqueous solution, is another widely used model for acute inflammatory pain. This model comprises 2 stages: an initial phase ([…]) where pain is triggered by formalin's direct stimulation of nociceptive receptors on sensory neurons, followed by a second phase (15 to 40 min) characterized by persistent inflammatory pain due to tissue damage. Similarly, both i.g. and i.m. methods were used to evaluate the effect of WN2-R in this model (n = 6) (Fig. 6B and I). […] These findings were consistent across repeated experiments.
To induce the pain response, 20 μl of formalin (5%, w/v) was injected subcutaneously into the right hind paw of ICR mice (3 male and 3 female). Prior to the formalin injection, mice were preadministered with WN2-R (5 mg/kg i.g., 1 mg/kg i.m.), PF05089771 (5 mg/kg i.g., 1 mg/kg i.m.), or saline 30 min beforehand. The duration of licking/biting the injected paw was recorded every 5 min, commencing immediately after the formalin injection and continuing for 40 min. Phase I and II in this assay corresponded to the nociceptive response observed between 0 and 5 min and between 10 and 40 min, respectively.

The subject of series [5] is acetic acid writhing pain model in mice. The experiment in a line: Acetic acid-induced writhing test. Type of series: in vivo, ICR mice. Particulars: 15 min before acetic acid, writhing counted 30 min. An excerpt:
Acute pain was a common type of pain with considerable value for drug development. Here, 2 acute inflammatory pain models were used to verify the acute analgesic effect of WN2-R. One such model, the acetic acid writhing pain model in mice, is a well-established acute visceral pain model. It simulates clinically relevant intestinal discomfort by stimulating the abdominal mucosa and intestine with acetic acid and has been extensively used to screen analgesic or anti-inflammatory drugs. Based on this model, we evaluated the acute analgesic effect of WN2-R using 2 drug delivery methods, i.g. and […] (n = 6). […] Furthermore, the analgesic effect of WN2-R at the same dose was similar to that of the positive control drug PF-05089771, with no significant difference between these two. […] Three male and 3 female ICR mice were used in the acetic acid-induced writhing test. Mice were preadministered with either WN2-R (5 mg/kg i.g., 1 mg/kg i.m.), PF05089771 (5 mg/kg i.g., 1 mg/kg i.m.), or saline 15 min before i.p. injection of 0.2 ml of acetic acid (0.8%, V/V). Each mouse was then placed in an individual open polyvinyl cage (30 cm × 40 cm × 30 cm). The number of writhing responses, characterized by a wave of abdominal muscle contraction followed by hind limb extension, was recorded for 30 min after acetic acid injection. These responses served as an indication of nociceptive intensity. The percentage of inhibition was calculated using the following equation: Inhibition% = (Writhing Numbervehicle – Writhing Numberdrug)/Writhing Numbervehicle × 100% [15, 47].
On the technique in general: An intraperitoneal irritant provokes the stretching counted in writhing tests.

For `Nc1[nH]ncc1-c1cc(Cl)ccc1Oc1cc(F)c(S(=O)(=O)Nc2cscn2)cc1Cl` [PF-05089771, 4-[2-(5-amino-1H-pyrazol-4-yl)-4-chlorophenoxy]-5-chloro-2-fluoro-N-1,3-thiazol-4-ylbenzenesulfonamide, reference compound], the “Time of peak efficacy” value in series [1] (i.g.) amounted to 1 h. Further, in series [1] (i.g., 1 h post drug application, 14 days after SNI), the “Paw withdrawal threshold (PWTs)” value came to 1.08 g. Moreover, in series [1] (i.m.), the “Time after which efficacy converged with the saline group” value stood at 3 h and the “Time of peak efficacy” value came out at 1 h. Besides, the “Paw withdrawal threshold (PWTs) at peak efficacy” value in series [1] (i.m., 1 h post drug application, 14 days after SNI) is given as 1.30 g. For the same molecule, the “F (bioavailability)” value in series [2] is 27%. Also, in series [3] (i.g.), the “Time at which PWT declined to the saline group level” value worked out at 2.5 h, the “Time of peak PWT after administration” value was 1 h and the “Paw withdrawal threshold (PWT) at 1.5 h” value is reported as 1.32 g. Also, in series [3] (i.m.), the “Time at which PWT declined to the saline group level” value is given as 3 h, the “Time of peak PWT after administration” value is on record as 1.5 h and the “Paw withdrawal threshold (PWT) at 1.5 h” value worked out at 1.83 g. In series [4] (i.g., 5 mg/kg), the “Licking time in phase I vs saline” value was “significantly reduced licking time” and the “Licking time in phase II vs saline” value is recorded as “decreased effectiveness”. Moreover, in series [4] (i.m., 1 mg/kg), the “Licking time in phase I vs saline” value is listed as “significantly reduced licking time” and the “Licking time in phase II vs saline” value was “significantly reduced licking time”. For the same molecule, the “Analgesic rate (normalized number of writhing)” value in series [5] (i.g., 5 mg/kg) is 53.5%. In addition, the “Analgesic rate (normalized number of writhing)” value in series [5] (i.p. (method: 1 mg/kg i.m.)) was determined as 51.9%.
